Test results taken from patent publication US10022420B2, “Methods of synthesizing γ-AApeptides, γ-AApeptide building blocks, γ-AApeptide libraries, and γ-AApeptide inhibitors of Aβ40 aggregates” (UNIVERSITY OF SOUTH FLORIDA, priority 2013, dated 2018).

Columns and labels:
[1] = target: T1, Aβ40 peptide (Homo sapiens, UniProt P05067); assay: On-bead screening of OBOC γ-AApeptide library against Aβ40 peptide; type: binding; conditions: Aβ40 20 ug/mL, 6e10 antibody, anti-mouse IgG-dylight 549
T1 construct: mouse 6e10 primary antibody which recognizes the first 16 amino acids of Aβ1-40
Description: The γ-AApeptide library was screened to identify ligands that can bind to Aβ. The anti-aggregation efficiency of identified ligands was determined by functional assay afterwards. Thus, beads were incubated with the Aβ40 peptide, followed by the treatment of anti-Aβ antibody 6E10 (FIG. 10). Then, anti-mouse IgG-dylight 549 conjugate was added. Dylight 549 produces strong orange fluorescence, a region in which TentaGel beads have low background fluorescence (see Aquino, C. supra, 4, which is incorporated by reference herein regarding properties of TentaGel beads). The dye is also much less expensive than quantum dots. […]
In order to avoid any possible nonspecific binding, both the Aβ and antibodies solution were made in 1% BSA/TBST blocking buffer. […] The beads were washed with PBST completely and transferred into a 6-well plate to be observed under Zeiss inverted fluorescence microscope 10×43HE filter, and the orange bright beads were picked up for they had suspicious nonspecific binding.
The rest of the beads were pulled together, washed with PBST, and then treated with 1% SDS at 90° C. for ten minutes to remove any bound proteins. […] After washing and equilibrating in TBST overnight, the beads were ready for actual Aβ screening. […]
The beads were collected and washed with 1×PBST three times. […] Washed with water, DMSO, and acetonitrile, beads were then cleaved and analyzed using previous procedure. […]

[2] = target: T2, Aβ40 (Homo sapiens, UniProt P05067); assay: Transmission electron microscopy (TEM) of Aβ40 fibrils; type: biochemical; conditions: HW-155-1 5 μM, 24 h
T2 construct: mouse 6e10 primary antibody which recognizes the first 16 amino acids of Aβ1-40
Description: FIGS. 15A-15D are TEM images illustrating monomeric Aβ40 in the absence (FIG. 15A) and presence (FIG. 15B) of HW-155-1 after 24 h and pre-aggregated Aβ40 in the absence (FIG. 15C) and presence (FIG. 15D) of HW-155-1 after 24 h. Bar=[…]; Aβ40 is 2.5 μM; and HW-155-1 is 5 μM. The ability of HW-155-1 to prevent Aβ aggregation was further confirmed by TEM (FIGS. 15A and 15B). In fact, HW-155-1 can even disassemble pre-formed Aβ fibrils (FIGS. 15C and 15D). In these experiments, the Aβ fibrils were not seen for 24 h after incubating HW-155-1 with Aβ40 monomers (prevention of aggregation) and pre-formed Aβ40 aggregates (disassembling aggregation). Aβ40 preparations were adsorbed onto 200-mesh copper grids for 1 hour (until it is dry), and then stained with 1% uranyl acetate for 20 sec. The excess fluid was removed and the grids were analyzed with FEI Morgagni 268D TEM operated at 60 kV.

[3] = system: N2a neuroblastoma cells; assay: MTT toxicity assay: Aβ42 aggregates on N2a cells; type: cell-based; conditions: final Aβ 1 μM, 24 h
Description: FIG. 16 is a bar graph illustrating detoxification of Aβ42 aggregates by HW-155-1. N2a cells were cultured with 1 μM of pre-aggregated Aβ42 in the absence/presence of HW-155-1 for 24 h.
The effect of HW-155-1 on the toxicity of Aβ aggregates towards N2a neuroblastoma cells was then examined. […] In contrast, pre-incubation of 0.5 equiv. of HW-155-1 with Aβ42 reduces the death of N2a cells to 25%, while the presence of 1 equiv.
In siliconized tubes, Aβ42 peptide of 10 μM (in F-12 medium) were pre-incubated with 0, 0.5 and 1 equiv. HW-155-1 AApeptide, respectively. These solutions were incubated on rotating shaker (Barnstead 400100) at 8 rpm in 37° C. for 24 h. Meanwhile, N2a cells were plated in 96-well plates (10000 cells/well) with triple replications for 24 h. Then pre-aggregated mixtures were added into each well to make the final Aβ concentration at 1 μM. The plate was incubated for another 24 h. Next, 10 μL MTT reagent was added to the cells. The plate was incubated for 4 h at 37° C. After the addition of 100 μL solubilization solution and incubation overnight, OD values were read at 575 nm. The final cell viability was calculated as: Cell viability %=(OD575−OD blank)/(ODctrl−OD blank)×100%.

[4] = target: T2, Aβ40; assay: Thioflavin T (ThT) assay of Aβ40 aggregation; type: biochemical
Description: Aggregation control (100%) is set as the change of fluorescence of 2.5 μM Aβ40 in Tris (pH 7.5) buffer. The concentration of ThT is 5 μM. Excitation: 440 nm; emission: 482 nm. These two sequences were investigated for their capability to inhibit the aggregation of Aβ40 by ThT assay. […] Compounds in different concentrations in Tris buffer Saline (TBS, pH 7.5) containing 10 μM ThT were added into a black 96 well plate corning@3721. Aβ40 monomer was freshly thawed and used to make a stock solution in TBS with a concentration of 5 μM. Equal volume of Aβ solution was added into the 96 well palate (final Aβ concentration was 2.5 μM). Time-dependent fluorescence change was monitored by a Synergy 2 plate reader at an excitation wavelength of 440 nm and emission at 482 nm. After 24 h, the fluorescence change was recorded. 100% aggregation is the fluorescence change of 2.5 μM Aβ40 in TBS buffer containing 5 μM ThT.

T2 sequence (P05067 672-711 limits assumed): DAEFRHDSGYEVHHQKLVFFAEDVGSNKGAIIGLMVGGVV
T1 sequence (P05067 672-711 limits assumed): as above

- on-bead binding to Aβ40 (screening outcome) [1]: hit
- Aβ fibrils by TEM, prevention of aggregation ([2]; Aβ40 monomers 2.5 μM): not seen
- Aβ fibrils by TEM, disassembling aggregation ([2]; pre-formed Aβ40 aggregates 2.5 μM): not seen
- inhibition at 1 µM ([4]; 1 μM compound, 2.5 μM Aβ40, first 2 h of incubation (FIG. 14B), read-out: inhibition of Aβ aggregation): ~50%
- potency relative to KLVFF ([4]; ThT assay, Aβ40): at least 100 fold
Structure (SMILES): C=CCOC(=O)N(CC(=O)N[C@@H](Cc1ccccc1)CN(CC(=O)N[C@@H](CCCCN)CN(CC(=O)N[C@@H](CC(C)C)CN(CC(N)=O)C(=O)CC(C)C)C(=O)CC(C)C)C(=O)CCc1ccccc1)C[C@@H](N)CCCCN [HW-155-1]
- death of N2a cells ([3]; 0.5 equiv. compound pre-incubated with Aβ42, Aβ42 alone kills 30%): 25%
- toxicity of Aβ42 / death of N2a cells ([3]; 1 equiv. compound pre-incubated with Aβ42): almost completely removes the toxicity
